Test [1] deals with T1, PAR4 (Homo sapiens (Human), UniProt Q96RI0). In words: FLIPR assay in PAR4-expressing HEK293 cells (PAR4 antagonist activity, calcium mobilization). Type of test: cell-based. The conditions noted are these: H-Ala-Phe(4-F)-Pro-Gly-Trp-Leu-Val-Lys-Asn-Gly-NH2-induced calcium mobilization. A digest of the protocol: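 HEK293 EBNA cells stably expressing human PAR4 (also endogenous PAR1) preincubated 30 min at room temperature with compound in HBSS/10 mM HEPES, 0.67% DMSO final. PAR4 agonist peptide then added and intracellular calcium mobilization monitored by fluorescence.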
T1 sequence (Q96RI0 18-385): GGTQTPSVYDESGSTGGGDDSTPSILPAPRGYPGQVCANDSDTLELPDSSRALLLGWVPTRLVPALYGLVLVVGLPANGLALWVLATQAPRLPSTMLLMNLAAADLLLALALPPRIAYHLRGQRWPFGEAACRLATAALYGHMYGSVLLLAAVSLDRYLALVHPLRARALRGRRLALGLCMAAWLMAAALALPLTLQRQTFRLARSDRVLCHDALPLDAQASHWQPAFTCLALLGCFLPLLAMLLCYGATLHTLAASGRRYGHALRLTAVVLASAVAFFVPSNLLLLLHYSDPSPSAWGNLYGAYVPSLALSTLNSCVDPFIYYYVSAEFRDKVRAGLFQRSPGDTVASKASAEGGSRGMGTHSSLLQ
In general terms: Calcium flux is commonly read through the fluorescence of an indicator in the cells.

For test [2], the target named is T1, PAR4. In words: Gamma thrombin induced platelet aggregation assay (PRP assay). Type of test: cell-based. As to conditions: human platelet rich plasma, 96-well microplate. The method, then: Platelet aggregation can be monitored in a 96-well microplate aggregation assay format or using standard platelet aggregometer.
The platelet rich plasma was isolated by centrifugation at 170 g for 14 minutes.
The ability of the compounds of the current invention to inhibit platelet aggregation induced by gamma-thrombin was tested in a 96-well microplate aggregation assay format. Briefly, PRP or washed platelet suspension (100 μl) was pre-incubated for 5 minutes at room temperature with varying concentrations of compounds. Aggregation was initiated by ˜10-50 nM gamma thrombin (Haematologic Technologies, Essex Junction, Vt.), which was titrated daily to achieve 80% platelet aggregation. Refludan at 1 U/mL (Berlex, Montville, N.J.) was added to the gamma thrombin sample to prevent PAR1 activation induced by residual alpha-thrombin contamination. The plate was then placed into a 37° C. Molecular Devices (Sunnyvale, Calif.) SPECTRAMAX® Plus Plate Reader. […] The plate also included an untreated control sample which served as ODmax, while buffer containing no platelets was the ODmin. Platelet aggregation was determined by subtracting the ODmax from the ODmin for the 100% aggregation value. In experimental samples, the observed transmission was subtracted from the minimum value and then compared to the 100% aggregation value to determine the percentage aggregation. IC50 values are determined using Excel Fit software.

Drawing on US9688695B2, “Imidazothiadiazole and imidazopyrazine derivatives as protease activated receptor 4 (PAR4) inhibitors for treating platelet aggregation” (BRISTOL-MYERS SQUIBB COMPANY, priority 2012, dated 2017), this text covers EC50 and IC50 for 33 compounds.

Broadly, the EC50 is the concentration needed to bring the measured effect to its halfway point. The term IC50 denotes the concentration needed to halve the response being measured. A higher IC50 goes with lower potency.

Structures are written as SMILES.

`CC(F)(F)c1nn2cc(-c3cc4c(OCc5csc(-c6ccccc6)n5)nccc4o3)nc2s1` [Example 202, 2-(2-(1,1-Difluoroethyl)imidazo[2,1-b][1,3,4]thiadiazol-6-yl)-4-((2-phenylthiazol-4-yl)methoxy)furo[3,2-c]pyridine]: the EC50 at PAR4 [1] stood at 43 nM. Also, the IC50 against PAR4 [2] was greater than 3000 nM.
Taken in the same sequence, the figures for `COc1cc(OCc2csc(N3CCC[C@@H]3C)n2)c2cc(-c3cn4nc(C)ccc4n3)oc2c1` [Example 274] were 3.4 nM and greater than 3000 nM.
Taken in the same sequence, the figures for `COc1cc(OCc2csc(Nc3cc(C)cc(C)n3)n2)c2cc(-c3cn4nc(C)ccc4n3)oc2c1` [Example 264] were 207 nM and greater than 3000 nM.
`COc1cc(OCc2csc(C(O)(c3ccc(Cl)cc3)C(F)(F)F)n2)c2cc(-c3cn4nc(OC)sc4n3)oc2c1` (stereo not drawn) [Example 145]: on PAR4 [1], the EC50 was 0.45 nM. The same compound displayed an IC50 on PAR4 [2] of 29 nM.
On the same counts, the results for `COc1cc(OCc2csc(N3CCN(c4cccc(Cl)c4)CC3)n2)c2cc(-c3cn4nc(C)ccc4n3)oc2c1` [Example 268] are 1.7 nM and 2360 nM.
Taken in the same sequence, the figures for `COc1cc(OCc2csc(N3CCC3)n2)c2cc(-c3cn4nc(C)ccc4n3)oc2c1` [Example 257] were 7.5 nM and greater than 3000 nM.
On the same counts, the results for `COc1cc(OCc2csc(Nc3ccc(F)c(C)n3)n2)c2cc(-c3cn4nc(C)ccc4n3)oc2c1` [Example 282] are 3480 nM and greater than 3000 nM.
For `COc1cc(OCc2nc(-c3cccc(CO)c3)sc2C)c2cc(-c3cn4nc(OC)sc4n3)oc2c1` [Example 77], the EC50 at PAR4 [1] was 1 nM. The IC50 against PAR4 [2] was found to be 1.9 nM.
On the same counts, the results for `COc1cc(OCc2nc(C3(O)CCOCC3)sc2C(F)(F)F)c2cc(-c3cn4nc(OC)sc4n3)oc2c1` [Example 131, 4-(4-(((6-Methoxy-2-(2-methoxyimidazo[2,1-b][1,3,4]thiadiazol-6-yl)benzofuran-4-yl)oxy)methyl)-5-(trifluoromethyl)thiazol-2-yl)tetrahydro-2H-pyran-4-ol] are 0.66 nM and greater than 3000 nM.
`COc1cc(OCc2csc(N3CCC(N4CCOCC4)CC3)n2)c2cc(-c3cn4nc(C)ccc4n3)oc2c1` [Example 273]: the EC50 on PAR4 [1] came to 53 nM. This compound also had an IC50 at PAR4 [2] greater than 3000 nM.
On the same counts, the results for `COc1cc(OCc2csc(C3(O)CCC(C(=O)N4CCCC4)CC3)n2)c2cc(-c3cn4nc(OC)sc4n3)oc2c1` (stereo not drawn) [Example 151, (4-Hydroxy-4-(4-(((6-methoxy-2-(2-methoxyimidazo[2,1-b][1,3,4]thiadiazol-6-yl)benzofuran-4-yl)oxy)methyl)thiazol-2-yl)cyclohexyl)(pyrrolidin-1-yl)methanone] are 0.84 nM and 26 nM.
Taken in the same sequence, the figures for `COc1cc(OCc2csc(C3(O)CCC4(CC3)OCCO4)n2)c2cc(-c3cn4nc(OC)sc4n3)oc2c1` [Example 126, 8-(4-(((6-Methoxy-2-(2-methoxyimidazo[2,1-b][1,3,4]thiadiazol-6-yl)benzofuran-4-yl)oxy)methyl)-thiazol-2-yl)-1,4-dioxaspiro[4.5]decan-8-ol] were 0.33 nM and 1.9 nM.
Regarding `COc1cc(OCc2csc(NCC3CCCO3)n2)c2cc(-c3cn4nc(C)ccc4n3)oc2c1` (stereo not drawn) [Example 256], the EC50 on PAR4 [1] came out at 7.8 nM. Also, the IC50 against PAR4 [2] was greater than 3000 nM.
`COc1cc(OCc2nc(-c3ccc(C(=O)N(C)CC#N)cc3)sc2C)c2cc(-c3cn4nc(OC)sc4n3)oc2c1` [Example 48, N-(Cyanomethyl)-4-(4-(((6-methoxy-2-(2-methoxyimidazo[2,1-b][1,3,4]thiadiazol-6-yl)benzofuran-4-yl)oxy)methyl)-5-methylthiazol-2-yl)-N-methylbenzamide]: at PAR4 [1], the EC50 amounted to 0.51 nM. Half-maximal inhibition at PAR4 [2] (IC50) was put at 1.2 nM.
Taken in the same sequence, the figures for `COc1cc(OCc2csc(N3CCC4(CC3)OCCO4)n2)c2cc(-c3cn4nc(OC)sc4n3)oc2c1` [Example 103, 8-(4-(((6-Methoxy-2-(2-methoxyimidazo[2,1-b][1,3,4]thiadiazol-6-yl)benzofuran-4-yl)oxy)methyl)thiazol-2-yl)-1,4-dioxa-8-azaspiro[4.5]decane] were 0.31 nM and 24 nM.
On the same counts, the results for `COc1cc(OCc2csc(C3(c4ccc(C(=O)N(C)C)cc4)CCOCC3)n2)c2cc(-c3cn4nc(OC)sc4n3)oc2c1` [Example 161, 4-(4-(4-(((6-Methoxy-2-(2-methoxyimidazo[2,1-b][1,3,4]thiadiazol-6-yl)benzofuran-4-yl)oxy)methyl)thiazol-2-yl)tetrahydro-2H-pyran-4-yl)-N,N-dimethylbenzamide] are 0.69 nM and 27 nM.
Taken in the same sequence, the figures for `COc1cc(OCc2csc(N3CCC[C@H]3C)n2)c2cc(-c3cn4nc(C)ccc4n3)oc2c1` [Example 275] were 4.2 nM and 2630 nM.
Regarding `COc1cc(OCc2csc(Nc3ccc4scnc4c3)n2)c2cc(-c3cn4nc(C)ccc4n3)oc2c1` [Example 281], the EC50 at PAR4 [1] is 0.6 nM. At PAR4 [2], this compound yielded an IC50 greater than 3000 nM.
On the same counts, the results for `COc1cc(OCc2csc(-c3ccc(C)nc3)n2)c2cc(-c3cn4nc(OC)sc4n3)oc2c1` [Example 74] are 0.56 nM and 0.96 nM.
On the same counts, the results for `COc1cc(OCc2csc(-c3ccnc(F)c3)n2)c2cc(-c3cn4nc(OC)sc4n3)oc2c1` [Example 67] are 0.34 nM and 2.2 nM.
On the same counts, the results for `COc1cc(OCc2csc(N(C)C)n2)c2cc(-c3cn4nc(C)ccc4n3)oc2c1` [Example 279] are 7.3 nM and greater than 3000 nM.
Take `COc1cc(OCc2csc(C(O)(c3ccccc3)C(F)(F)F)n2)c2cc(-c3cn4nc(OC)sc4n3)oc2c1` (stereo not drawn) [Example 137]: on PAR4 [1], the EC50 stood at 1.2 nM. Also, half-maximal inhibition against PAR4 [2] (IC50) required 23 nM.
On the same counts, the results for `CCC(F)(c1nc(COc2cc(OC)cc3oc(-c4cn5nc(OC)sc5n4)cc23)cs1)C(F)(F)F` (stereo not drawn) [Example 139] are 0.41 nM and 26 nM.
Taken in the same sequence, the figures for `COc1cc(OCc2csc(-c3ccc(C(=O)N(C)CCC#N)cc3)n2)c2cc(-c3cn4nc(OC)sc4n3)oc2c1` [Example 311] were 0.65 nM and 2 nM.
Regarding `COc1cc(OCc2csc(N3CCN(c4ccc(C)cn4)CC3)n2)c2cc(-c3cn4nc(C)ccc4n3)oc2c1` [Example 285], the EC50 at PAR4 [1] worked out at 2.9 nM. The same compound returned an IC50 against PAR4 [2] of 2340 nM.
On the same counts, the results for `COc1cc(OCc2nc(N3CC4CCC(C3)O4)sc2C)c2cc(-c3cn4nc(OC)sc4n3)oc2c1` [Example 93, 3-(4-(((6-Methoxy-2-(2-methoxyimidazo[2,1-b]thiadiazol-6-yl)benzofuran-4-yl)oxy)methyl)-5-methylthiazol-2-yl)-8-oxa-3-azabicyclo-[3.2.1]-octane] are 0.45 nM and 27 nM.
As to `COc1cc(OCc2csc(C3(O)CCOCC3)n2)c2cc(-c3cn4nc(OC)sc4n3)oc2c1` [Example 118, 4-(4-(((6-Methoxy-2-(2-methoxyimidazo[2,1-b][1,3,4]thiadiazol-6-yl)benzofuran-4-yl)oxy)methyl)thiazol-2-yl)tetrahydro-2H-pyran-4-ol], on PAR4 [1], the EC50 came to 0.33 nM. The IC50 against PAR4 [2] is 25 nM.
In the case of `COc1cc(OCc2cscn2)c2cc(-c3cn4nc(OC)sc4n3)oc2c1` [Example 34], the EC50 on PAR4 [1] amounted to 1.2 nM. Further, on PAR4 [2], the IC50 amounted to 2320 nM.
Turning to `COc1cc(OCc2csc(-c3ccc4c(c3)OCO4)n2)c2cc(-c3cn4nc(C)ccc4n3)oc2c1` [Example 219], the EC50 on PAR4 [1] worked out at 1 nM. This compound came in with an IC50 against PAR4 [2] of 25 nM.
Taken in the same sequence, the figures for `COc1cc(OCc2csc(C3(O)CC(C)OC(C)C3)n2)c2cc(-c3cn4nc(OC)sc4n3)oc2c1` (stereo not drawn) [Example 121, 4-(4-(((6-Methoxy-2-(2-methoxyimidazo[2,1-b][1,3,4]thiadiazol-6-yl)benzofuran-4-yl)oxy)methyl)thiazol-2-yl)-2,6-dimethyltetrahydro-2H-pyran-4-ol] were 0.27 nM and 27 nM.
On the same counts, the results for `COc1cc(OCc2csc(-c3ccc(Cl)cc3)n2)c2cc(-c3cn4nc(C)ccc4n3)oc2c1` [Example 209, 2-(4-Chlorophenyl)-4-(((6-methoxy-2-(6-methylimidazo[1,2-b]pyridazin-2-yl)benzofuran-4-yl)oxy)methyl)thiazole] are 1.2 nM and 23 nM.
As to `COc1cc(OCc2csc(C3(O)CCC(C(=O)N(C)CC#N)CC3)n2)c2cc(-c3cn4nc(OC)sc4n3)oc2c1` (stereo not drawn) [Example 152, N-(Cyanomethyl)-4-hydroxy-4-(4-(((6-methoxy-2-(2-methoxyimidazo[2,1-b][1,3,4]thiadiazol-6-yl)benzofuran-4-yl)oxy)methyl)thiazol-2-yl)-N-methylcyclohexanecarboxamide], the EC50 at PAR4 [1] came to 0.68 nM. In addition, it took 28 nM to reach half-maximal inhibition on PAR4 [2] (IC50).
Turning to `COCCOCc1nc(COc2cc(OC)cc3oc(-c4cn5nc(OC)sc5n4)cc23)cs1` [Example 6, 2-Methoxy-6-(6-methoxy-4-((2-((2-methoxyethoxy)methyl)thiazol-4-yl)methoxy)benzofuran-2-yl)imidazo[2,1-b][1,3,4]thiadiazole], the EC50 on PAR4 [1] was 0.68 nM. In addition, the IC50 against PAR4 [2] turned out to be 2030 nM.
